Legend:
BTK(wt) = BTK(wt) (Homo sapiens (Human), UniProt Q06187); experiment: In vitro inhibitory activity against BTK(wt) enzyme (33P-ATP filter binding); format: biochemical; settings: class symbols
Description: (§1) The substrate solution was prepared by adding the substrate poly(Glu, Tyr) sodium salt (Sigma Aldrich, St. Louis, Mo.) to the substrate reaction buffer (20 mM Hepes (pH 7.5), 10 mM MgCl2, 1 mM EGTA, 0.02% Brij35, 0.02 mg/mL BSA, 0.1 mM Na3VO4, 2 mM DTT and 1% DMSO) (final substrate concentration in the reaction solution was 0.2 μM). Test compound was formulated into stock solutions at 10 mM concentration with 100% DMSO, and 3-fold serial dilution for 10 doses was performed in a 384-well cyclic olefin copolymer LDV microplate. […] Test compound in 100% DMSO was then added to the kinase reaction mixture by acoustic liquid transfer technology (Echo 550; nanoliter range) (Labcyte Inc, Sunnyvale, Calif.) and incubated for 20 min at room temperature. 33P-ATP (specific activity 10 μCi/μL) was added to the reaction mixture to initiate the reaction, followed by incubation at room temperature for 2 h. A small portion of the reaction mixture was dropped onto P-81 ion exchange filter paper (Whatman). After washing the unbound phosphate from the filter paper with 0.75% phosphate buffer (three times) and drying, the remaining radioactivity on the filter paper was measured. The kinase activity was expressed as the percentage of the remaining kinase activity in the test sample to the kinase activity in the vehicle (dimethyl sulfoxide) blank control. IC50 values were calculated by curve fitting the data obtained using Prism (GraphPad Software).

BTK(C481S) = BTK(C481S) (Homo sapiens (Human), UniProt Q06187, C481S); experiment: In vitro inhibitory activity against BTK(C481S) enzyme (33P-ATP filter binding); format: biochemical; settings: class symbols; read-out: IC50 BTK(C48IS)
Sequence of BTK(C481S) (Q06187 whole entry C481S): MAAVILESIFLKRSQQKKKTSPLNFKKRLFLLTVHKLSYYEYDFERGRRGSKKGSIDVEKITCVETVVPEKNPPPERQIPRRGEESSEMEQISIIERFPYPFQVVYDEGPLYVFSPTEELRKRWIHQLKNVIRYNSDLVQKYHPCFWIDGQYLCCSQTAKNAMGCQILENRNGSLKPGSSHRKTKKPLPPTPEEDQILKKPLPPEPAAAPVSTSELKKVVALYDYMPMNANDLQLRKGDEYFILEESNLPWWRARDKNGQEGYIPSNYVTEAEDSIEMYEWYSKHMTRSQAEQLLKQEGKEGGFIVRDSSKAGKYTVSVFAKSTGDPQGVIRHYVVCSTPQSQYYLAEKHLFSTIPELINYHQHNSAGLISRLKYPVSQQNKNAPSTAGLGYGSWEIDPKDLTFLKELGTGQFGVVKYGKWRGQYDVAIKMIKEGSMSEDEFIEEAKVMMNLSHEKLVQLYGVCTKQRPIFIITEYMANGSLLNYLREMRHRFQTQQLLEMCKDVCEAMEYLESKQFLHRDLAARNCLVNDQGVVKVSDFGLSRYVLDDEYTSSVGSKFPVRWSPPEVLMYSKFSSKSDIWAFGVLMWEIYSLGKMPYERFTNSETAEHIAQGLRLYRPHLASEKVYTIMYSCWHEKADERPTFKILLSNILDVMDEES
Description: as §1

Sequence of BTK(wt) (Q06187 whole entry): as the sequence (Q06187 whole entry C481S) above, with S481C counted along it

Row | Compound | IC50 (BTK(wt)) [nM] | IC50 (BTK(C481S)) [nM]
1 | COCCC(=O)NC12CCC(n3cc(-c4ccc(C(=O)Nc5cc(C(F)(F)F)ccn5)cc4)c4c(N)ncnc43)(CC1)C2 [Compound B-6-3, 4-(4-amino-7-(4-(3-methoxypropanamido)bicyclo[2.2.1]heptan-1-yl)-7H-pyrrolo[2,3-d]pyrimidin-5-yl)-N-(4-(trifluoromethyl)pyridin-2-yl)benzamide] | 1 to 10 | 1 to 10
2 | Nc1ncnc2c1n(-c1ccc(C(=O)Nc3cc(C(F)(F)F)ccn3)cc1)c(=O)n2C12CCC(NC(=O)CN3CCOCC3)(CC1)C2 [Compound C-7-2, 4-(6-amino-9-(4-(2-morpholinoacetamido)bicyclo[2.2.1]heptan-1-yl)-8-oxo-8,9-dihydro-7H-purin-7-yl)-N-(4-(trifluoromethyl)pyridin-2-yl)benzamide] | 1 to 10 | 0.1 to 1
3 | COCCC(=O)NC12CCC(c3nc(-c4ccc(Oc5ccccc5)cc4)c4c(N)nccn34)(CC1)C2 [Compound A-13-2, N-(4-(8-amino-1-(4-phenoxyphenyl)imidazo[1,5-a]pyrazin-3-yl)bicyclo[2.2.1]heptan-1-yl)-3-methoxypropanamide] | 1 to 10 | 0.1 to 1
4 | COc1ccc(F)cc1C(=O)NCc1ccc(-c2nc(C34CCC(NC(=O)C5(C)COC5)(CC3)C4)n3ccnc(N)c23)cc1 [Compound A-16-3, N-(4-(8-amino-1-(4-((5-fluoro-2-methoxybenzamido)methyl)phenyl)imidazo[1,5-a]pyrazin-3-yl)bicyclo[2.2.1]heptan-1-yl)-3-methyloxetane-3-carboxamide] | 1 to 10 | 1 to 10
5 | CC1(C(=O)NC23CCC(c4nc(-c5ccc(C(=O)Nc6cc(C(F)(F)F)ccn6)cc5)c5c(N)nccn45)(CC2)C3)COC1 [Compound A-10-5, N-(4-(8-amino-1-(4-((4-(trifluoromethyl)pyridin-2-yl)carbamoyl)phenyl)imidazo[1,5-a]pyrazin-3-yl)bicyclo[2.2.1]heptan-1-yl)-3-methyloxetane-3-carboxamide] | 1 to 10 | ≤ 0.1
6 | Nc1nccn2c(C34CCC(NC(=O)c5cccnc5)(CC3)C4)nc(-c3ccc(C(=O)Nc4cc(C(F)(F)F)ccn4)cc3)c12 [Compound A-10-19, N-(4-(8-amino-1-(4-((4-(trifluoromethyl)pyridin-2-yl)carbamoyl)phenyl)imidazo[1,5-a]pyrazin-3-yl)bicyclo[2.2.1]heptan-1-yl)nicotinamide] | 10 to 50 | 1 to 10
7 | CC#CC(=O)NC12CCC(c3nc(-c4ccc(C(=O)Nc5cc(C(F)(F)F)ccn5)cc4)c4c(N)nccn34)(CC1)C2 [Compound A-7-3, 4-(8-amino-3-(4-(but-2-ynamido)bicyclo[2.2.1]heptan-1-yl)imidazo[1,5-a]pyrazin-1-yl)-N-(4-(trifluoromethyl)pyridin-2-yl)benzamide] | 0.1 to 1 | 0.1 to 1
8 | COc1ccccc1C(=O)NC12CCC(c3nc(-c4ccc(C(=O)Nc5cc(C(F)(F)F)ccn5)cc4)c4c(N)nccn34)(CC1)C2 [Compound A-10-20, N-(4-(8-amino-1-(4-((4-(trifluoromethyl)pyridin-2-yl)carbamoyl)phenyl)imidazo[1,5-a]pyrazin-3-yl)bicyclo[2.2.1]heptan-1-yl)-2-methoxybenzamide] | 10 to 50 | 1 to 10
9 | COC/C=C/C(=O)NC12CCC(c3nc(-c4ccc(C(=O)Nc5cc(C(F)(F)F)ccn5)cc4)c4c(N)nccn34)(CC1)C2 [Compound A-10-1, (E)-4-(8-amino-3-(4-(4-methoxybut-2-enamido)bicyclo[2.2.1]heptan-1-yl)imidazo[1,5-a]pyrazin-1-yl)-N-(4-(trifluoromethyl)pyridin-2-yl)benzamide] | 1 to 10 | 0.1 to 1
10 | C=CC(=O)NC12CCC(c3nc(-c4ccc(C(=O)Nc5cc(C(F)(F)F)ccn5)cc4)c4c(N)nccn34)(CC1)C2 [Compound A-10-3, 4-(3-(4-acrylamidobicyclo[2.2.1]heptan-1-yl)-8-aminoimidazo[1,5-a]pyrazin-1-yl)-N-(4-(trifluoromethyl)pyridin-2-yl)benzamide] | 1 to 10 | 0.1 to 1
11 | CC(C#N)C(=O)NC12CCC(c3nc(-c4ccc(C(=O)Nc5cc(C(F)(F)F)ccn5)cc4)c4c(N)nccn34)(CC1)C2 (stereo not shown) [Compound A-10-14, 4-(8-amino-3-(4-(2-cyanopropanamido)bicyclo[2.2.1]heptan-1-yl)imidazo[1,5-a]pyrazin-1-yl)-N-(4-(trifluoromethyl)pyridin-2-yl)benzamide] | 1 to 10 | 0.1 to 1
12 | CC#CC(=O)NC12CCC(c3nc(-c4ccc(CNC(=O)c5cc(F)ccc5OC)cc4)c4c(N)nccn34)(CC1)C2 [Compound A-7-12, N-(4-(8-amino-3-(4-(but-2-ynamido)bicyclo[2.2.1]heptan-1-yl)imidazo[1,5-a]pyrazin-1-yl)benzyl)-5-fluoro-2-methoxybenzamide] | 1 to 10 | 0.1 to 1
13 | CC1(C(=O)NC23CCC(n4cc(-c5ccc(C(=O)Nc6cc(C(F)(F)F)ccn6)cc5)c5c(N)ncnc54)(CC2)C3)COC1 [Compound B-6-4, N-(4-(4-amino-5-(4-((4-(trifluoromethyl)pyridin-2-yl)carbamoyl)phenyl)-7H-pyrrolo[2,3-d]pyrimidin-7-yl)bicyclo[2.2.1]heptan-1-yl)-3-methyloxetane-3-carboxamide] | 1 to 10 | 1 to 10
14 | Nc1nccn2c(C34CCC(NC(=O)c5ccccc5)(CC3)C4)nc(-c3ccc(C(=O)Nc4cc(C(F)(F)F)ccn4)cc3)c12 [Compound A-10-17, 4-(8-amino-3-(4-benzamidobicyclo[2.2.1]heptan-1-yl)imidazo[1,5-a]pyrazin-1-yl)-N-(4-(trifluoromethyl)pyridin-2-yl)benzamide] | 10 to 50 | 1 to 10
15 | CC#CC(=O)NC12CCC(c3nc(-c4ccc(C(=O)Nc5cc(F)ccn5)cc4)c4c(N)nccn34)(CC1)C2 [Compound A-7-2, 4-(8-amino-3-(4-(but-2-ynamido)bicyclo[2.2.1]heptan-1-yl)imidazo[1,5-a]pyrazin-1-yl)-N-(4-fluoropyridin-2-yl)benzamide] | 1 to 10 | 0.1 to 1
16 | COCCC(=O)NC12CCC(c3nc(-c4ccc(CNC(=O)c5cc(F)ccc5OC)cc4)c4c(N)nccn34)(CC1)C2 [Compound A-16-2, N-(4-(8-amino-3-(4-(3-methoxypropanamido)bicyclo[2.2.1]heptan-1-yl)imidazo[1,5-a]pyrazin-1-yl)benzyl)-5-fluoro-2-methoxybenzamide] | 1 to 10 | 1 to 10
17 | Nc1nccn2c(C34CCC(NC(=O)c5ccccn5)(CC3)C4)nc(-c3ccc(C(=O)Nc4cc(C(F)(F)F)ccn4)cc3)c12 [Compound A-10-18, N-(4-(8-amino-1-(4-((4-(trifluoromethyl)pyridin-2-yl)carbamoyl)phenyl)imidazo[1,5-a]pyrazin-3-yl)bicyclo[2.2.1]heptan-1-yl)picolinamide] | 10 to 50 | 1 to 10
18 | Nc1nccn2c(C34CCC(NC(=O)CN5CCOCC5)(CC3)C4)nc(-c3ccc(Oc4ccccc4)cc3)c12 [Compound A-13-4, N-(4-(8-amino-1-(4-phenoxyphenyl)imidazo[1,5-a]pyrazin-3-yl)bicyclo[2.2.1]heptan-1-yl)-2-morpholinoacetamide] | 10 to 50 | 1 to 10
19 | N#CC1(C(=O)NC23CCC(c4nc(-c5ccc(C(=O)Nc6cc(C(F)(F)F)ccn6)cc5)c5c(N)nccn45)(CC2)C3)CCOCC1 [Compound A-10-15, N-(4-(8-amino-1-(4-((4-(trifluoromethyl)pyridin-2-yl)carbamoyl)phenyl)imidazo[1,5-a]pyrazin-3-yl)bicyclo[2.2.1]heptan-1-yl)-4-cyanotetrahydro-2H-pyran-4-carboxamide] | 1 to 10 | 0.1 to 1
20 | CC#CC(=O)NC12CCC(n3cc(-c4ccc(C(=O)Nc5cc(C(F)(F)F)ccn5)cc4)c4c(N)ncnc43)(CC1)C2 [Compound B-6-1, 4-(4-amino-7-(4-(but-2-ynamido)bicyclo[2.2.1]heptan-1-yl)-7H-pyrrolo[2,3-d]pyrimidin-5-yl)-N-(4-(trifluoromethyl)pyridin-2-yl)benzamide] | 1 to 10 | 1 to 10
21 | CC(C)(O)C(=O)NC12CCC(n3cc(-c4ccc(C(=O)Nc5cc(C(F)(F)F)ccn5)cc4)c4c(N)ncnc43)(CC1)C2 [Compound B-6-2, 4-(4-amino-7-(4-(2-hydroxy-2-methylpropanamido)bicyclo[2.2.1]heptan-1-yl)-7H-pyrrolo[2,3-d]pyrimidin-5-yl)-N-(4-(trifluoromethyl)pyridin-2-yl)benzamide] | 10 to 50 | 1 to 10
22 | Nc1nccn2c(C34CCC(NC(=O)C5CCCO5)(CC3)C4)nc(-c3ccc(C(=O)Nc4cc(C(F)(F)F)ccn4)cc3)c12 (stereo not shown) [Compound A-10-11, N-(4-(8-amino-1-(4-((4-(trifluoromethyl)pyridin-2-yl)carbamoyl)phenyl)imidazo[1,5-a]pyrazin-3-yl)bicyclo[2.2.1]heptan-1-yl)tetrahydrofuran-2-carboxamide] | 1 to 10 | 0.1 to 1
23 | CC(C)(O)C(=O)NC12CCC(c3nc(-c4ccc(Oc5ccccc5)cc4)c4c(N)nccn34)(CC1)C2 [Compound A-13-1, N-(4-(8-amino-1-(4-phenoxyphenyl)imidazo[1,5-a]pyrazin-3-yl)bicyclo[2.2.1]heptan-1-yl)-2-hydroxy-2-methylpropanamide] | 1 to 10 | 1 to 10

Source: patent US11420975B2, “Substituted imidazo[1,5-a]pyrazines as Bruton's tyrosine kinase inhibitors” (TRANSTHERA SCIENCES (NANJING), INC., priority 2018, dated 2022)
